Results reported in patent US8148373B2, “Compounds” (AstraZeneca AB, priority 2008, dated 2012).

What was measured:
[1] = molecular target: T1, Adrenergic β2 (H292 cells) (Homo sapiens, UniProt P07550); assay: Adrenergic β2 Mediated cAMP Production, single concentration 1 μM; type: cell-based; settings: percentage of the maximum response generated by 1E-07M formoterol; for β2 (% effect at 1 μM): 1 μM compound; for activation at 1 µM: NCI-H292, 1 μM compound, read-out: β2 (% effect at 1 μM)
T1 construct: endogenous in cells; host or cells: H292 cells
T1 sequence (P07550 whole entry): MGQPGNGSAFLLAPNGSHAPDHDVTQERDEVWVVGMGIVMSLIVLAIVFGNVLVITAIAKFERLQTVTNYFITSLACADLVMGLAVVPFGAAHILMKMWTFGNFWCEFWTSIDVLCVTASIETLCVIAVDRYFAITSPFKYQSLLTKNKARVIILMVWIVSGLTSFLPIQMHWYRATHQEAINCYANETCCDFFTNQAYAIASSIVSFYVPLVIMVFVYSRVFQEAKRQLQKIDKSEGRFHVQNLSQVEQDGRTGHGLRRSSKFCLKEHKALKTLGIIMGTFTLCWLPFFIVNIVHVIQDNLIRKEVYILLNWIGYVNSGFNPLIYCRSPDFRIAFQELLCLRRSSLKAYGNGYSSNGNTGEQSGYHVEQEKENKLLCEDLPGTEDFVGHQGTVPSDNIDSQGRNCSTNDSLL
Summary of the method: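 H292 cells were plated overnight, pre-treated with 300 μM rolipram for 10 min, then exposed to compound at 1 μM final (1% DMSO) for 60 min at room temperature. cAMP in the lysates was measured by AlphaScreen against a standard curve and expressed as % of the maximal response to 1E-07M formoterol.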

[2] = molecular target: T2, human muscarinic acetylcholine M3 receptor (M3-ACh) (Homo sapiens, UniProt P20309); assay: Muscarinic 3 Receptor Binding Assay, % inhibition specific binding at 1 μM; settings: 1 μM compound, % inhibition specific [3H]-NMS binding
T2 construct: expressed in transfected cells; host or cells: CHO-K1 (Chinese Hamster Ovary) cell membranes
T2 sequence (P20309 whole entry): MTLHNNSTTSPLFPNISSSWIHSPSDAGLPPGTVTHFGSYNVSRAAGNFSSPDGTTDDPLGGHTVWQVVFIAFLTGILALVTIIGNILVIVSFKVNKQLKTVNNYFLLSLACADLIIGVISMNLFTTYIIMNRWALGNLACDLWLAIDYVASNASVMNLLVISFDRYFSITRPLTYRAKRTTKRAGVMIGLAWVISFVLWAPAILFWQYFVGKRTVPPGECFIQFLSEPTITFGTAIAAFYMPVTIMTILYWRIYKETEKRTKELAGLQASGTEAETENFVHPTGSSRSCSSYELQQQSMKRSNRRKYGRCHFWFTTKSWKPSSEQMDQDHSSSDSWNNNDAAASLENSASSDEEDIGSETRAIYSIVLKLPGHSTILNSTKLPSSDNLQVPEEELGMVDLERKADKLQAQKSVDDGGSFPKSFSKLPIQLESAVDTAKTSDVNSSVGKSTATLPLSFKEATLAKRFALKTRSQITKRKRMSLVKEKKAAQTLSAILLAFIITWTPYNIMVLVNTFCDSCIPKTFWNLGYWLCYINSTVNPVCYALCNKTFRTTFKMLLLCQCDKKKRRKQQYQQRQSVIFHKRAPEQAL
Summary of the method: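 Competition binding of 0.1 nM [3H]NMS to membranes from CHO-K1 cells expressing human M3, SPA format, with compound at 1 μM in 20 mM HEPES pH 7.4, 5 mM MgCl2, 1% DMSO. Incubated 16 h at room temperature; non-specific binding defined by 1 μM atropine; value is % inhibition of specific binding.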

| Compound | activation at 1 µM [1] | inhibition at 1 µM [2] | M3 (% inhibition at 1 μM) [2] | β2 (% effect at 1 μM) [1] | M3 (% inhibition at 1 μM) ([2]; 1 µM) |
| --- | --- | --- | --- | --- | --- |
| O=C(c1ccc(-c2ccccc2)cc1)N1CCOC2(CCN(Cc3cc(F)cc(CCNC[C@H](O)c4ccc(O)c5[nH]c(=O)sc45)c3)CC2)C1 [Example 145, (R)-7-(2-(3-((4-(biphenylcarbonyl)-1-oxa-4,9-diazaspiro[5.5]undecan-9-yl)methyl)-5-fluorophenethylamino)-1-hydroxyethyl)-4-hydroxybenzo[d]thiazol-2(3H)-one] | – | – | – | 53% | 7% |
| O=C(c1ccc2[nH]ccc2c1)N1CCOC2(CCN(Cc3cc(F)cc(CCNC[C@H](O)c4ccc(O)c5[nH]c(=O)sc45)c3)CC2)C1 [Example 138, (R)-7-(2-(3-((4-(1H-indole-5-carbonyl)-1-oxa-4,9-diazaspiro[5.5]undecan-9-yl)methyl)-5-fluorophenethylamino)-1-hydroxyethyl)-4-hydroxybenzo[d]thiazol-2(3H)-one] | 92% | 27% | – | – | – |
| O=C(COc1ccc(O)cc1)N1CCOC2(CCN(Cc3cc(F)cc(CCNC[C@H](O)c4ccc(O)c5[nH]c(=O)sc45)c3)CC2)C1 [Example 181, (R)-7-(2-(3-fluoro-5-((4-(2-(4-hydroxyphenoxy)acetyl)-1-oxa-4,9-diazaspiro[5.5]undecan-9-yl)methyl)phenethylamino)-1-hydroxyethyl)-4-hydroxybenzol[d]thiazol-2(3H)-one] | – | – | 10% | 86% | – |
| O=C(CCc1nc2ccccc2[nH]1)N1CCOC2(CCN(Cc3cc(F)cc(CCNC[C@H](O)c4ccc(O)c5[nH]c(=O)sc45)c3)CC2)C1 [Example 116, (R)-7-(2-(3-((4-(3-(1H-benzo[d]imidazol-2-yl)propanoyl)-1-oxa-4,9-diazaspiro[5.5]undecan-9-yl)methyl)-5-fluorophenethylamino)-1-hydroxyethyl)-4-hydroxybenzo[d]thiazol-2(3H)-one] | 111% | 3% | – | – | – |
| Cc1cc(C(=O)N2CCOC3(CCN(CCCCCCCCCNC[C@H](O)c4ccc(O)c5[nH]c(=O)sc45)CC3)C2)oc1C [Example 195, (R)-7-(2-(9-(4-(4,5-dimethylfuran-2-carbonyl)-1-oxa-4,9-diazaspiro[5.5]undecan-9-yl)nonylamino)-1-hydroxyethyl)-4-hydroxybenzo[d]thiazol-2(3H)-one] | 86% | 88% | – | – | – |
| O=C(c1ccc(Cl)s1)N1CCOC2(CCN(CCOc3ccc(CNC[C@H](O)c4ccc(O)c5[nH]c(=O)sc45)cc3)CC2)C1 [Example 231, (R)-7-(2-(4-(2-(4-(5-chlorothiophene-2-carbonyl)-1-oxa-4,9-diazaspiro[5.5]undecan-9-yl)ethoxy)benzylamino)-1-hydroxyethyl)-4-hydroxybenzo[d] thiazol-2(3H)-one] | 53% | 91% | – | – | – |
| O=C(CCc1cccs1)N1CCOC2(CCN(CCOc3ccc(CNC[C@H](O)c4ccc(O)c5[nH]c(=O)sc45)cc3)CC2)C1 [Example 248, (R)-4-hydroxy-7-(1-hydroxy-2-(4-(2-(4-(3-(thiophen-2-yl)propanoyl)-1-oxa-4,9-diazaspiro[5.5]undecan-9-yl)ethoxy)benzylamino)ethyl) benzo[d]thiazol-2(3H)-one] | 70% | 44% | – | – | – |
| O=C(Cn1ccc2cccc(Cl)c21)N1CCOC2(CCN(Cc3cc(F)cc(CCNC[C@H](O)c4ccc(O)c5[nH]c(=O)sc45)c3)CC2)C1 [Example 168, (R)-7-(2-(3-((4-(2-(7-chloro-1H-indol-1-yl)acetyl)-1-oxa-4,9-diazaspiro[5.5]undecan-9-yl)methyl)-5-fluorophenethylamino)-1-hydroxyethyl)-4-hydroxybenzo[d]thiazol-2(3H)-one] | 95% | 29% | – | – | – |
| O=C(CCCc1ccccc1)N1CCOC2(CCN(CCOc3ccc(CNC[C@H](O)c4ccc(O)c5[nH]c(=O)sc45)cc3)CC2)C1 [Example 229, (R)-4-hydroxy-7-(1-hydroxy-2-(4-(2-(4-(4-phenylbutanoyl)-1-oxa-4,9-diazaspiro[5.5]undecan-9-yl)ethoxy)benzylamino)ethyl) benzo[d]thiazol-2(3H)-one] | 83% | 67% | – | – | – |
| Cc1sccc1C(=O)N1CCOC2(CCN(Cc3cc(F)cc(CCNC[C@H](O)c4ccc(O)c5[nH]c(=O)sc45)c3)CC2)C1 [Example 147, (R)-7-(2-(3-fluoro-5-((4-(2-methylthiophene-3-carbonyl)-1-oxa 4,9-diazaspiro[5.5]undecan-9-yl)methyl)phenethylamino)-1-hydroxyethyl)-4-hydroxybenzo[d]thiazol-2(3H)-one] | 102% | 66% | – | – | – |
| Cc1cc(C(=O)N2CCOC3(CCN(Cc4cc(F)cc(CCNC[C@H](O)c5ccc(O)c6[nH]c(=O)sc56)c4)CC3)C2)oc1C [Example 180, (R)-7-(2-(3-((4-(4,5-dimethylfuran-2-carbonyl)-1-oxa-4,9-diazaspiro[5.5]undecan-9-yl)methyl)-5-fluorophenethylamino)-1-hydroxyethyl)-4-hydroxybenzo[d]thiazol-2(3H)-one] | 92% | 51% | – | – | – |
| Cc1cccc(C(=O)N2CCOC3(CCN(CCCCCCCCCNC[C@H](O)c4ccc(O)c5[nH]c(=O)sc45)CC3)C2)n1 [Example 196, (R)-4-hydroxy-7-(1-hydroxy-2-(9-(4-(6-methylpicolinoyl)-1-oxa-4,9-diazaspiro[5.5]undecan-9-yl)nonylamino)ethyl)benzo[d]thiazol-2(3H)-one] | 89% | 95% | – | – | – |
| O=C(Cc1ccsc1)N1CCOC2(CCN(CCOc3ccc(CNC[C@H](O)c4ccc(O)c5[nH]c(=O)sc45)cc3)CC2)C1 [Example 233, (R)-4-hydroxy-7-(1-hydroxy-2-(4-(2-(4-(2-(thiophen-3-yl)acetyl)-1-oxa-4,9-diazaspiro[5.5]undecan-9-yl)ethoxy)benzylamino)ethyl) benzo[d]thiazol-2(3H)-one] | 82% | 51% | – | – | – |

The next lines start with results.

| activation at 1 µM [1] | inhibition at 1 µM [2] | M3 (% inhibition at 1 μM) [2] | Compound | β2 (% effect at 1 μM) [1] | M3 (% inhibition at 1 μM) ([2]; 1 µM) |
| --- | --- | --- | --- | --- | --- |
| 93% | 96% | – | CC(C)(C(=O)N1CCOC2(CCN(CCCCCCCCCNC[C@H](O)c3ccc(O)c4[nH]c(=O)sc34)CC2)C1)c1ccccc1 [Example 189, (R)-4-hydroxy-7-(1-hydroxy-2-(9-(4-(2-methyl-2-phenylpropanoyl)-1-oxa-4,9-diazaspiro[5.5]undecan-9-yl)nonylamino)ethyl)benzo[d]thiazol-2(3H)-one] | – | – |
| 82% | 86% | – | Cc1cccc(C(=O)N2CCOC3(CCN(Cc4cc(F)cc(CCNC[C@H](O)c5ccc(O)c6[nH]c(=O)sc56)c4)CC3)C2)c1 [Example 122, (R)-7-(2-(3-fluoro-5-((4-(3-methylbenzoyl)-1-oxa-4,9-diazaspiro[5.5]undecan-9-yl)methyl)phenethylamino)-1-hydroxyethyl)-4-hydroxybenzo[d]thiazol-2(3H)-one] | – | – |
| 74% | 60% | – | Cn1cccc1C(=O)N1CCOC2(CCN(CCOc3ccc(CNC[C@H](O)c4ccc(O)c5[nH]c(=O)sc45)cc3)CC2)C1 [Example 225, (R)-4-hydroxy-7-(1-hydroxy-2-(4-(2-(4-(1-methyl-1H-pyrrole-2-carbonyl)-1-oxa-4,9-diazaspiro[5.5]undecan-9-yl)ethoxy)benzylamino)ethyl) benzo[d]thiazol-2(3H)-one] | – | – |
| 95% | 69% | – | Cc1nc(CC(=O)N2CCOC3(CCN(Cc4cc(F)cc(CCNC[C@H](O)c5ccc(O)c6[nH]c(=O)sc56)c4)CC3)C2)cs1 [Example 166, (R)-7-(2-(3-fluoro-5-((4-(2-(2-methylthiazol-4-yl)acetyl)-1-oxa-4,9-diazaspiro[5.5]undecan-9-yl)methyl)phenethylamino)-1-hydroxyethyl)-4-hydroxybenzo[d]thiazol-2(3H)-one] | – | – |
| 111% | 26% | – | COc1ccc(OC)c(C(=O)N2CCOC3(CCN(Cc4cc(F)cc(CCNC[C@H](O)c5ccc(O)c6[nH]c(=O)sc56)c4)CC3)C2)c1 [Example 136, (R)-7-(2-(3-((4-(2,5-dimethoxybenzoyl)-1-oxa-4,9-diazaspiro[5.5]undecan-9-yl)methyl)-5-fluorophenethylamino)-1-hydroxyethyl)-4-hydroxybenzo[d]thiazol-2(3H)-one] | – | – |
| 100% | 60% | – | O=C(c1ccc2ccccc2n1)N1CCOC2(CCN(Cc3cc(F)cc(CCNC[C@H](O)c4ccc(O)c5[nH]c(=O)sc45)c3)CC2)C1 [Example 119, (R)-7-(2-(3-fluoro-5-((4-(quinoline-2-carbonyl)-1-oxa-4,9-diazaspiro[5.5]undecan-9-yl)methyl)phenethylamino)-1-hydroxyethyl)-4-hydroxybenzo[d]thiazol-2(3H)-one] | – | – |
| 108% | 2% | – | Cc1ccc2nc(C)c(C(=O)N3CCOC4(CCN(Cc5cc(F)cc(CCNC[C@H](O)c6ccc(O)c7[nH]c(=O)sc67)c5)CC4)C3)n2c1 [Example 143, (R)-7-(2-(3-((4-(2,6-dimethylimidazo[1,2-a]pyridine-3-carbonyl)-1-oxa-4,9-diazaspiro[5.5]undecan-9-yl)methyl)-5-fluorophenethylamino)-1-hydroxyethyl)-4-hydroxybenzo[d]thiazol-2(3H)-one] | – | – |
